Entries after “also recorded” stand apart in the source; their conditions may differ.
Tests used:
MDA-MB-231 cells = assay: Protein synthesis, 14C-Leucine incorporation (Cytostar-T); assay type: cell-based, human; settings: all time-points
Description: (§1) As described in “Leucine Uptake [^14C] Cytostar-T assay, Amersham Biosciences” (CFA773).
(§2) And incubated overnight in growth medium. The next day medium was carefully aspirated (8-channel Vacuboy) and 50 μL of fresh pre-warmed medium (10% FCS, 10 mM HEPES pH 7.2-7.5) was added. Cells were allowed to equilibrate at 37° C. for 60 min. Test compounds were added in 50 μL medium and ^14C-leucine was added in 100 μL medium (0.5 μCi mL−1 final). Plates were sealed with transparent, adhesive foil. Plates were then incubated in a 37° C. for 6 h in a humidified incubator. Incorporation of radioactive leucine into proteins (a measure of protein synthesis) was then read by coincidence scintillation (counts per minute (CPM)) using a Wallac Microbeta detector at the indicated time-intervals. A reading a t=0 (5 min after sealing plates) for each well is subtracted as background.

MDA-MB-468 cells = assay: as above; assay type: cell-based, human; settings: all time-points
Description: as §1, §2

MDA-MB-468 tumours = assay: Xenograft studies using MDA-MB-468 tumours; assay type: in vivo, mice
[1] = system: PC-3 prostate cancer cell line; assay: Alamar Blue cell proliferation assay; assay type: cell-based, human
Description: (§3) Cell culture: All cell lines except MCF10A are maintained in RPMI medium containing 10% foetal Bovine Serum (FBS) 100 U/ml penicillin, and 100 μg/ml streptomycin. MCF10A is maintained in mammary epithelial growth medium (MEGM) with singlequot addition (BPE, hydrocortisone, hEGF, insulin, gentamicin/amphotericin-B) (Clonetics/Cambrex Bio Science). All cell lines are incubated at 37° C., 5% CO2, and 95% humidity.
(§4) Alamar Blue cell proliferation assay: Cells are plated in black cell culture treated Packard/Perkin Elmer 96-viewplates in 100 μl/well RPMI medium containing […], 100 U/ml penicillin, and 100 μg/ml streptomycin. Cell proliferation has been estimated in triplicate for all cell lines in medium containing either 1% FBS or 10% FBS. […]
(§5) The number of viable cells is estimated using an Alamar Blue assay that measures mitochondrial activity. […] Alamar Blue signal is read in a fluorescence plate reader using a 590 nm emission filter and a 530 nm excitation filter.
(§6) Data handling/calculations: Data are normalised to values from 0% activity (S0) to 100% activity (Smax). Average values for S0 and Smax are calculated and used to calculate percent activity (PCTACT) in the assays by the formula: PCTACT=(Xraw−Smax)/(S0−Smax)*100.

MCF-7 tumours = assay: Xenograft studies using MCF-7 tumours; assay type: in vivo, mice
Description: Nude balb/c mice weighing 25-45 grams are implanted with MCF-7 tumours by subcutaneous implantation in both flanks. […] Tumour volume is determined once or twice/week.

[2] = system: panel of prostate cancer cell lines; assay: Alamar Blue cell proliferation assay, summary over the prostate panel; assay type: cell-based; settings: 10% FBS
Description: as §3, §4, §5, §6

[3] = system: panel of human breast cancer cell lines; assay: Alamar Blue cell proliferation assay, summary over the breast panel; assay type: cell-based; settings: 10% FBS; FIGS. 9, 10 and 11
Description: as §3, §4, §5, §6

[4] = system: MDA-MB-231 breast cancer cell line; assay: Alamar Blue cell proliferation assay; assay type: cell-based; settings: Homo sapiens; MDA-MB-231, 10% FBS, 72 hours; read-out: EC50 (nM); IC50 values for inhibition of cell proliferation
Description: as §3
(§7) Alamar Blue cell proliferation assay: Cells are plated in black cell culture treated Packard/Perkin Elmer 96-viewplates in 100 μl/well RPMI medium containing […], 100 U/ml penicillin, and 100 μg/ml streptomycin. Cell proliferation has been estimated in triplicate for all cell lines in medium containing either 1% FBS or 10% FBS. The day after plating, the growth medium is changed to either 100 μl/well RPMI containing 1% FBS, 100 U/ml penicillin, 100 μg/ml streptomycin and 25 μg/ml gentamicin or to 100 μl/well RPMI containing 10% FBS, 100 U/ml penicillin, 100 μg/ml streptomycin and 25 μg/ml gentamicin. Compounds are added in 9 point half-log dilution series at concentrations indicated in the graphs. […] Briefly, compounds are diluted in compound plates in growth medium containing either 1% FBS or 10% FBS corresponding to the medium in the plates. Compounds are transferred to the cell plates by transfer of 100 μl/well, resulting in a total volume of 200 μl/well containing compound at concentrations indicated in graphs and 0.25% DMSO. Terfenedine is used as a control for maximal cell kill in wells containing 50 μM terfenedine and 0.5% DMSO (Smax). Negative control wells (So) contain medium with 0.25% DMSO.
(§8) After compound addition cell plates are incubated undisturbed for 72 hours at 37° C., 5% CO2, and 95% humidity.
(§9) The number of viable cells is estimated using an Alamar Blue assay that measures mitochondrial activity. The medium is decanted and replaced with 150 μl/well RPMI medium without phenol-red containing 100 U/ml penicillin, and 100 μg/ml streptomycin and 10% Alamar Blue. The plates are placed in the incubator at 37° C., 5% CO2, and 95% humidity for 2 hours. Then, plates are moved to a table and allowed to cool to room temperature without stacking the plates. Alamar Blue signal is read in a fluorescence plate reader using a 590 nm emission filter and a 530 nm excitation filter.
as §6

[5] = system: HCC-1954 breast cancer cell line; assay: Alamar Blue cell proliferation assay; assay type: cell-based; settings: Homo sapiens, HCC1954, 72 h, HCC-1954, 10% FBS, read-out: EC50 (nM), IC50 values for inhibition of cell proliferation
Description: as §3, §7, §8, §9, §6

[6] = system: PC-3/M prostate cancer cell line; assay: Alamar Blue cell proliferation assay; assay type: cell-based; settings: Homo sapiens, 10% FBS, 72 hours, read-out: EC50 (nM), IC50 values for inhibition of cell proliferation
Description: as §3, §7, §8, §9, §6

[7] = system: non-transformed human breast epithelial cell line MCF10A; assay: Alamar Blue cell proliferation assay; assay type: cell-based; settings: MCF-10A, serum-free MEGM medium, 72 hours, read-out: EC50 (nM), IC50 values for inhibition of cell proliferation
Description: as §3, §7, §8, §9, §6

[8] = system: MDA-MB-468 breast cancer cell line; assay: Alamar Blue cell proliferation assay; assay type: cell-based; settings: Homo sapiens, MDA-MB-468, 72 h, MDA-MB-468, 10% FBS, read-out: EC50 (nM), IC50 values for inhibition of cell proliferation
Description: as §3, §7, §8, §9, §6

[9] = system: SKBr-3 breast cancer cell line; assay: Alamar Blue cell proliferation assay; assay type: cell-based; settings: Homo sapiens, SK-BR-3, 72 h, SKBr-3, 10% FBS, read-out: EC50 (nM), IC50 values for inhibition of cell proliferation
Description: as §3, §7, §8, §9, §6

[10] = system: LnCaP prostate cancer cell line; assay: Alamar Blue cell proliferation assay; assay type: cell-based; settings: Homo sapiens, 10% FBS, 72 hours, read-out: EC50 (nM), IC50 values for inhibition of cell proliferation
Description: as §3, §7, §8, §9, §6

[11] = system: BT-549 breast cancer cell line; assay: Alamar Blue cell proliferation assay; assay type: cell-based; settings: Homo sapiens, BT-549, 72 h, BT-549, 10% FBS, read-out: EC50 (nM), IC50 values for inhibition of cell proliferation
Description: as §3, §7, §8, §9, §6

[12] = system: T47-D breast cancer cell line; assay: Alamar Blue cell proliferation assay; assay type: cell-based; settings: Homo sapiens, T47D, 72 h, 10% FBS, read-out: EC50 (nM), IC50 values for inhibition of cell proliferation
Description: as §3, §7, §8, §9, §6

[13] = system: MDA-MB-435S breast cancer cell line; assay: Alamar Blue cell proliferation assay; assay type: cell-based; settings: Homo sapiens, 10% FBS, 72 hours, read-out: EC50 (nM), IC50 values for inhibition of cell proliferation
Description: as §3, §7, §8, §9, §6

[14] = system: ZR75-1 breast cancer cell line; assay: Alamar Blue cell proliferation assay; assay type: cell-based; settings: Homo sapiens, ZR-75-1; ZR75-1, 10% FBS, 72 hours; read-out: EC50 (nM); IC50 values for inhibition of cell proliferation
Description: as §3, §7, §8, §9, §6

[15] = system: MDA-MB-453 breast cancer cell line; assay: Alamar Blue cell proliferation assay; assay type: cell-based; settings: Homo sapiens, MDA-MB-453, 72 h, MDA-MB-453, 10% FBS, read-out: EC50 (nM), IC50 values for inhibition of cell proliferation
Description: as §3, §7, §8, §9, §6

[16] = system: MCF7 breast cancer cell line; assay: Alamar Blue cell proliferation assay; assay type: cell-based; settings: Homo sapiens, MCF7, 72 h, MCF7, 10% FBS, read-out: EC50 (nM), IC50 values for inhibition of cell proliferation
Description: as §3, §7, §8, §9, §6

[17] = system: BT-474 breast cancer cell line; assay: Alamar Blue cell proliferation assay; assay type: cell-based; settings: Homo sapiens, BT-474, 72 h, BT-474, 10% FBS, read-out: EC50 (nM), IC50 values for inhibition of cell proliferation
Description: as §3, §7, §8, §9, §6

[18] = system: DU-145 prostate cancer cell line; assay: Alamar Blue cell proliferation assay; assay type: cell-based; settings: Homo sapiens; DU-145, 10% FBS, 72 hours; read-out: EC50 (nM); IC50 values for inhibition of cell proliferation
Description: as §3, §7, §8, §9, §6

[19] = system: mTOR pathway proteins (p70S6K, S6, 4E-BP1, AKT, cyclin D3) in MDA-468 cells; assay: Western Blots on proteins involved in translational control; assay type: cell-based, human; settings: MDA-468, 24 hour incubation
Description: 16-24 hours after, the growth medium were shifted to growth medium containing compounds.
After 24 or 48 hours incubation with compounds, cells were washed with ice cold PBS buffer and harvested in lysis buffer: Cytobuster reagent (Novagen) containing phosphatase inhibitor cocktail 1 and 2 and protease inhibitor cocktail (Sigma). Samples containing an equal amount of protein were loaded onto 7% Tris Acetate gels, 10% Bis-Tris in MES buffer or 12% Bis-Tris gels using MOPS running buffer (Invitrogen). Following electrophoresis the samples were blotted onto a PVDF membrane (Invitrogen). For membrane blocking and antibody incubations of p70 S6K, Phospho-p70 S6K (Thr389), PathscanI and S6 antibodies (Cell Signalling Technology) a buffer containing 0.2% Tween-20, 5% non-fat dry milk, 5% FBS, in Tris buffered Saline (TBS) were used. For immunoblotting of 4EBP1, Phospho 4EBP1 (Thr37/46), Phospho 4EBP1 (Ser65) (Cell Signalling Technology) and Cyclin D3 (Santa Cruz) a protocol from Cell Signalling Technology were used. Cell Signalling Technology blocking buffer contains 0.1% Tween-20, 5% non fat dry milk in TBS and primary antibody dilution buffer contains 0.1% Tween-20, 5% BSA in TBS. Before adding primary antibody dilution buffer to the membranes, the blots were rinsed briefly in 0.1% Tween-20. […] Peroxidase activity was detected using the ECL detection system (Amersham Biosciences).

[20] = monotherapy, PO daily for 15 days or IV weekly for 4 weeks

COc1ccc(C[C@H]2NC[C@H](O)[C@H]2OC(C)=O)cc1 [Anisomycin]
Effect of control compounds on 14C-Leucine incorporation (MDA-MB-231 cells): completely inhibit | Effect of control compounds on 14C-Leucine incorporation (MDA-MB-468 cells): completely inhibit

O=C1Nc2c(ccc(F)c2F)C1(c1ccc(O)cc1)c1ccc(O)cc1 [Compound 41, 6,7-Difluoro-3,3-bis-(4-hydroxy-phenyl)-1,3-dihydro-indol-2-one]
Rate of tumour growth, MDA-MB-468 xenograft (MDA-MB-468 tumours; [20]): reduces the rate of MDA-MB-468 human breast cancer tumour cell growth | Tumour regression, MDA-MB-468 xenograft (MDA-MB-468 tumours; monotherapy, PO or IV): induces tumour regression at all doses tested; also recorded: more pronounced tumour regression at all doses tested | Effect compared with paclitaxel, MDA-MB-468 xenograft (MDA-MB-468 tumours; mouse, in vivo): more pronounced than following administration of paclitaxel; also recorded: more effective than paclitaxel | Per-oral versus intravenous dosing, MDA-MB-468 xenograft (MDA-MB-468 tumours; mouse, in vivo): equally effective by per-oral and intravenous dosing | Effect on proliferation of PC-3 ([1]; 10% FBS): inhibit the proliferation | Tumour size / growth, MCF-7 xenograft (MCF-7 tumours; [20]): reduces the rate of MCF-7 human breast cancer tumour cell growth; also recorded: reduces the size of MCF7 tumours | Tumour regression, MCF-7 xenograft (MCF-7 tumours; monotherapy, PO or IV): induces tumour regression at all doses tested; also recorded: tumour regression is noted using all doses tested | Effect compared with paclitaxel, MCF-7 xenograft (MCF-7 tumours; mouse, in vivo): more pronounced than following administration of paclitaxel; also recorded: appears to be greater than paclitaxel | Per-oral versus intravenous dosing, MCF-7 xenograft (MCF-7 tumours; mouse, in vivo): equally effective by the per-oral and intravenous dosing

C[C@@H]1C[C@@H]([C@H](O)CC2CC(=O)NC(=O)C2)C(=O)[C@@H](C)C1 [Cycloheximide]
Effect of control compounds on 14C-Leucine incorporation (MDA-MB-231 cells): completely inhibit | Effect of control compounds on 14C-Leucine incorporation (MDA-MB-468 cells): completely inhibit

O=C1Nc2ccccc2C1(c1ccc(O)cc1)c1ccc(O)cc1 [Oxyphenisatine]
Potency relative to Compound 3, prostate cell line panel [2]: lower potency than Compound 3 | Potency relative to Compound 3, breast cell line panel [3]: slightly lower in potency | IC50 ([1]; Homo sapiens, PC-3, 10% FBS, 72 hours, read-out: EC50 (nM), IC50 values for inhibition of cell proliferation): 899 nM | IC50 [4]: > 3000 nM | IC50 [5]: 912 nM | IC50 [6]: > 3000 nM | IC50 [7]: > 3000 nM | IC50 [8]: 935 nM | IC50 [9]: 527 nM | IC50 [10]: 790 nM | IC50 [11]: 859 nM | IC50 [12]: 324 nM | IC50 [13]: > 3000 nM | IC50 [14]: 285 nM | IC50 [15]: 228 nM | IC50 [16]: 517 nM | IC50 [17]: 324 nM | IC50 [18]: > 3000 nM

CO[C@H]1C[C@@H]2CC[C@@H](C)[C@@](O)(O2)C(=O)C(=O)N2CCCC[C@H]2C(=O)O[C@H]([C@H](C)C[C@@H]2CC[C@@H](O)[C@H](OC)C2)CC(=O)[C@H](C)/C=C(\C)[C@@H](O)[C@@H](OC)C(=O)[C@H](C)C[C@H](C)/C=C/C=C/C=C/1C [rapamycin]
AKT phosphorylation on Ser473 (Western blot) [19]: not inhibited

Reference: patent publication US20070299102A1, “Diphenyl Ox-Indol-2-One Compounds and Their Use in the Treatment of Cancer” (Topo Target A/S, priority 2004, published 2007)
